Data: article PMC5750217 (Nature Communications, 2018)
Positions count from the first letter of the chain named.

Assays:
Assay type in all cases: cell-based
[1] = molecular target: T1, A1-T458S/T459C (mutant ASCT1) (Homo sapiens, UniProt P43007, T458S/T459C); test: Radiolabelled uptake in oocytes expressing A1-T458S/T459C; conditions: 10 µM L-[3H]substrate, 10 min, room temperature
T1 construct: expressed in transfected cells; host or cells: Xenopus laevis oocytes (cRNA injection)
T1 sequence (P43007 1-532 T458S/T459C): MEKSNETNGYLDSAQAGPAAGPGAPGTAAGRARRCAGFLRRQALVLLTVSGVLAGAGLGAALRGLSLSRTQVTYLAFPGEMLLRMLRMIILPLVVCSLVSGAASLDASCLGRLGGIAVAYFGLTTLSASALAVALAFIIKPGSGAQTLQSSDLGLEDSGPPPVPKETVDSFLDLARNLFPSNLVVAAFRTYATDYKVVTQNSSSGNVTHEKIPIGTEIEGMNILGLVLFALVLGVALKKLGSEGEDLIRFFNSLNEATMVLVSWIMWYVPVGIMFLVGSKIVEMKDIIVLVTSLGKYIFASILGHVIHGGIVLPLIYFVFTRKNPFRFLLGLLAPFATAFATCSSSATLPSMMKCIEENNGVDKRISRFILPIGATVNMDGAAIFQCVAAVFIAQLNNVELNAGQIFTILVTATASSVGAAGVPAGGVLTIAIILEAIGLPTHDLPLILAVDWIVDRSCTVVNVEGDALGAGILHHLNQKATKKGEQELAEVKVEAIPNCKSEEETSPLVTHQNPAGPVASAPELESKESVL
Procedure: Uptake of L-[^3H]amino acids (PerkinElmer Life Sciences) was measured in oocytes expressing wild-type and mutant ASCT1, and uninjected oocytes. Five oocytes were incubated in Cl^−-containing buffer with 10 µM L-[^3H]amino acids at room temperature. After 10 min, uptake was terminated by three rapid washes in ice-cold Cl^−-containing buffer followed by lysis in 50 mM NaOH and 1% SDS. L-[^3H]amino acids were measured by scintillation counting using a Trilux beta counter (PerkinElmer Life Sciences).

[2] = molecular target: T2, ASCT1 (Homo sapiens, UniProt P43007); test: Two electrode voltage clamp, substrate-activated anion current in oocytes expressing ASCT1
T2 construct: expressed in transfected cells; host or cells: Xenopus laevis oocytes (cRNA injection)
T2 sequence (P43007 1-532): T1 sequence (P43007 1-532 T458S/T459C) with S458T, C459T
Procedure: All chemicals were obtained from Sigma unless otherwise stated. Stage V oocytes were harvested from female Xenopus laevis (frogs) which were obtained from Nasco (Fort Alkinson, USA). Frogs were anaesthetised with 6.5 mM tricaine neutralised with 7.14 mM sodium bicarbonate. After making an incision in the abdomen of the frog, ovarian sacs were removed and stored in OR-2 buffer (82.5 mM NaCl, 2 mM KCl, 1 mM MgCl2, 5 mM hemisodium HEPES, pH 7.5). This surgical procedure follows a protocol (#2016/970) approved by the University of Sydney Animal Ethics Committee under the Australian Code of Practice for the Care and Use of Animals for Scientific Purposes. […]
After 2–4 days of microinjection, current recordings were made using the two electrode voltage clamp technique with a Geneclamp 500 amplifier (Axon Instruments, Foster City, CA) interfaced with a MacLab 2e chart recorder (ADI Instruments, Sydney, Australia) using the chart software, and a Digidata 1322A (Axon Instruments) controlled by an IBM-compatible computer using the pClamp software (version 10, Molecular Devices, Union City, CA). […] Current–voltage relationships were calculated by subtracting steady state current measurements in the absence of substrate from corresponding current measurements in the presence of substrate. […]

[3] = molecular target: T1, A1-T458S/T459C (mutant ASCT1); test: Two electrode voltage clamp, substrate-activated anion current in oocytes expressing A1-T458S/T459C; conditions: for EC50: A1-T458S/T459C in oocytes, NO3−-containing buffer, current at +60 mV
Procedure: All chemicals were obtained from Sigma unless otherwise stated. Stage V oocytes were harvested from female Xenopus laevis (frogs) which were obtained from Nasco (Fort Alkinson, USA). Frogs were anaesthetised with 6.5 mM tricaine neutralised with 7.14 mM sodium bicarbonate. After making an incision in the abdomen of the frog, ovarian sacs were removed and stored in OR-2 buffer (82.5 mM NaCl, 2 mM KCl, 1 mM MgCl2, 5 mM hemisodium HEPES, pH 7.5). This surgical procedure follows a protocol (#2016/970) approved by the University of Sydney Animal Ethics Committee under the Australian Code of Practice for the Care and Use of Animals for Scientific Purposes. To isolate oocytes, the ovarian sacs were cut into small sections before being digested by agitation with 2 mg per ml Collagenase A for 1–2 h. Following digestion, defoliculated oocytes were initially rinsed with OR-2, followed by frog Ringer’s solution (96 mM NaCl, 2 mM KCl, 1 mM MgCl2, 1.8 mM CaCl2, 5 mM hemisodium HEPES, pH 7.5). A total of 20 ng of transporter cRNA was injected into oocytes which were stored in frog Ringer’s solution supplemented with 0.1% gentamycin, 50 μg per ml tetracycline, 2.5 mM pyruvate and 0.5 mM theophylline at 16–18 °C.
After 2–4 days of microinjection, current recordings were made using the two electrode voltage clamp technique with a Geneclamp 500 amplifier (Axon Instruments, Foster City, CA) interfaced with a MacLab 2e chart recorder (ADI Instruments, Sydney, Australia) using the chart software, and a Digidata 1322A (Axon Instruments) controlled by an IBM-compatible computer using the pClamp software (version 10, Molecular Devices, Union City, CA). The current–voltage relationships for substrate elicited conductances were obtained by subjecting cells to 200 ms voltage pulses between −100 mV and + 60 mV in 10 mV steps. Current–voltage relationships were calculated by subtracting steady state current measurements in the absence of substrate from corresponding current measurements in the presence of substrate.
Recording solution for all experiments (except where otherwise stated) was normal frog Ringer’s solution (Cl^−-containing buffer) with complete NO3 ^− substitution for Cl^−. For Na^+ titrations, NMDG^+ was used as the substitute cation. The pH of recording solutions was adjusted using HNO3 and NaOH or KOH. Recordings were made with the bath grounded via a 3 M KCl/agar bridge connected to a 3 M KCl reservoir to minimise offset potentials. Cells were washed with Cl^−-containing buffer between substrate applications to ensure that NO3 loading of the cell was not significant. […]

Row | SMILES | Radiolabelled substrate uptake into oocytes (in words) [1] | EC50 ([2]; ASCT1 in oocytes, NO3−-containing buffer, current at +60 mV, dash = substrate did not generate currents) | EC50 [3] | GPNA % inhibition of L-serine activated current ([2]; ASCT1, GPNA co-applied with EC50 of L-serine, 300 µM GPNA / 1 mM GPNA (Table 1 footnote)) | GPNA % inhibition of L-serine activated current ([3]; A1-T458S/T459C, GPNA co-applied with EC50 of L-serine, 300 µM GPNA / 1 mM GPNA (Table 1 footnote)) | IC50 ([3]; A1-T458S/T459C, co-applied with EC50 of L-serine, read-out: IC50 for inhibition of L-serine activated current)
1 | N[C@@H](CO)C(=O)O [L-serine] | robust accumulation | 100 ± 20 µM | 45 ± 5 µM |  |  | 
2 | N[C@@H](CCC(=O)Nc1ccc([N+](=O)[O-])cc1)C(=O)O [GPNA, glutamyl-p-nitroanilide] |  |  |  | 26 ± 3% | 41 ± 4% | 600 ± 200 µM
3 | NC(=O)CC[C@H](N)C(=O)O [L-glutamine] | robust accumulation |  | 90 ± 10 µM |  |  | 
